The assay has as its target T1, Recombinant human TPH1 (MBP tagged) (Homo sapiens, UniProt P17752).
T1 construct: cloning full length human TPH1 cDNA in to a bacterial pMAL-c5E expression vector; made in house; host or cells: E. coli BL21 (DE3)
T1 sequence (P17752 1-444): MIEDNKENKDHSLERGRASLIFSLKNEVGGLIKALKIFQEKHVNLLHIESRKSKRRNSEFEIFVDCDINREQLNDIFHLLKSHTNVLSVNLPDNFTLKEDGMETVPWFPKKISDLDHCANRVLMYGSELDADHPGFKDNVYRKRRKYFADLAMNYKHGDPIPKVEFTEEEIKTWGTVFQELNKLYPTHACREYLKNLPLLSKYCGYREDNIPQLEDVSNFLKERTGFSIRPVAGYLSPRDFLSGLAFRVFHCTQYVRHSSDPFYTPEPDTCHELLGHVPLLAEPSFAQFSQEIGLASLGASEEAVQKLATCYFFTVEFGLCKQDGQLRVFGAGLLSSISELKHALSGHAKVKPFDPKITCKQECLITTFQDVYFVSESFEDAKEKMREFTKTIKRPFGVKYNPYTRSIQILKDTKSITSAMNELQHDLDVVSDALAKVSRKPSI
As to the kind of experiment: TPH1 in vitro inhibition assay (kinetic fluorescence). Format: biochemical. The method in brief:
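Final mix: 15 nM MBP-TPH1, 30 μM Trp, 36 μM 6-methyltetrahydropterin, 25 μM ferrous ammonium sulfate, 50 mM MES pH 7.1, 1% DMSO, room temperature.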

The mark [1] stands for this setting: TPH1 Range (TPH1 inhibition IC50).
The mark [2] stands for this setting: read-out: TPH1 Range (TPH1 inhibition IC50).

In patent US11759462B2, “Spirocyclic compounds as tryptophan hydroxylase inhibitors” (priority 2013, dated 2023) one finds IC50 data, which are given here for 21 compounds.

Read-outs that look alike come from different tables or passages of the source. A value given as a limit tells only on which side of the number the result lay.

By IC50 is commonly meant the concentration needed to halve the response being measured. As to `Cc1cccc(-c2cc(Cl)ccc2[C@@H](Oc2cc(N3CCC4(CC3)CN[C@H](C(=O)O)C4)nc(N)n2)C(F)(F)F)c1` [Example 34b, (S)-8-(2-amino-6-((R)-1-(5-chloro-3′-methyl-[1,1′-biphenyl]-2-yl)-2,2,2-trifluoroethoxy)pyrimidin-4-yl)-2,8-diazaspiro[4.5]decane-3-carboxylic acid], under setting [1], the IC50 was less than 50 nM.

In the case of `Cc1cc(C)cc(-c2cc(Cl)ccc2[C@@H](Oc2cc(N3CCC4(CC3)CN[C@H](C(=O)O)C4)nc(N)n2)C(F)(F)F)c1` [Example 34ba, (S)-8-(2-amino-6-((R)-1-(5-chloro-3′,5′-dimethyl-[1,1′-biphenyl]-2-yl)-2,2,2-trifluoroethoxy)pyrimidin-4-yl)-2,8-diazaspiro[4.5]decane-3-carboxylic acid], under setting [2], the IC50 was less than 50 nM.

`Cc1cc(-c2cc(Cl)ccc2[C@@H](Oc2cc(N3CCC4(CC3)CN[C@H](C(=O)O)C4)nc(N)n2)C(F)(F)F)ccc1OC(F)(F)F` [Example 34bb, (S)-8-(2-amino-6-((R)-1-(5-chloro-3′-methyl-4′-(trifluoromethoxy)-[1,1′-biphenyl]-2-yl)-2,2,2-trifluoroethoxy)pyrimidin-4-yl)-2,8-diazaspiro[4.5]decane-3-carboxylic acid]: the IC50 under setting [2] lay within 50 to 300 nM.

As for `Cc1cc(-c2cc(Cl)ccc2[C@@H](Oc2cc(N3CCC4(CC3)CN[C@H](C(=O)O)C4)nc(N)n2)C(F)(F)F)cc(C)c1Cl` [Example 34bc, (S)-8-(2-amino-6-((R)-1-(4′,5-dichloro-3′,5′-dimethyl-[1,1′-biphenyl]-2-yl)-2,2,2-trifluoroethoxy)pyrimidin-4-yl)-2,8-diazaspiro[4.5]decane-3-carboxylic acid], the IC50 under setting [2] was 50 to 300 nM.

`Cc1cc(-c2cc(Cl)ccc2[C@@H](Oc2cc(N3CCC4(CC3)CN[C@H](C(=O)O)C4)nc(N)n2)C(F)(F)F)ccc1F` [Example 34bd, (S)-8-(2-amino-6-((R)-1-(5-chloro-4′-fluoro-3′-methyl-[1,1′-biphenyl]-2-yl)-2,2,2-trifluoroethoxy)pyrimidin-4-yl)-2,8-diazaspiro[4.5]decane-3-carboxylic acid]: under setting [2], the IC50 is less than 50 nM.

In the case of `Cc1cc(Cl)cc(-c2cc(Cl)ccc2[C@@H](Oc2cc(N3CCC4(CC3)CN[C@H](C(=O)O)C4)nc(N)n2)C(F)(F)F)c1` [Example 34be, (S)-8-(2-amino-6-((R)-1-(3′,5-dichloro-5′-methyl-[1,1′-biphenyl]-2-yl)-2,2,2-trifluoroethoxy)pyrimidin-4-yl)-2,8-diazaspiro[4.5]decane-3-carboxylic acid], the IC50 under setting [2] was less than 50 nM.

Turning to `Nc1nc(O[C@H](c2ccc(Cl)cc2-c2cc(F)c(F)c(F)c2)C(F)(F)F)cc(N2CCC3(CC2)CN[C@H](C(=O)O)C3)n1` [Example 34bf, (S)-8-(2-amino-6-((R)-1-(5-chloro-3′,4′,5′-trifluoro-[1,1′-biphenyl]-2-yl)-2,2,2-trifluoroethoxy)pyrimidin-4-yl)-2,8-diazaspiro[4.5]decane-3-carboxylic acid], the IC50 under setting [2] lay within 50 to 300 nM.

For `Nc1nc(O[C@H](c2ccc(Cl)cc2-c2cccc(OC(F)(F)F)c2)C(F)(F)F)cc(N2CCC3(CC2)CN[C@H](C(=O)O)C3)n1` [Example 34bg, (S)-8-(2-amino-6-((R)-1-(5-chloro-3′-(trifluoromethoxy)-[1,1′-biphenyl]-2-yl)-2,2,2-trifluoroethoxy)pyrimidin-4-yl)-2,8-diazaspiro[4.5]decane-3-carboxylic acid], under setting [2], the IC50 was in the range of 50 to 300 nM.

`Nc1nc(O[C@H](c2ccc(Cl)cc2-c2cc(C(F)(F)F)cc(C(F)(F)F)c2)C(F)(F)F)cc(N2CCC3(CC2)CN[C@H](C(=O)O)C3)n1` [Example 34bh, (S)-8-(2-amino-6-((R)-1-(5-chloro-3′,5′-bis(trifluoromethyl)-[1,1′-biphenyl]-2-yl)-2,2,2-trifluoroethoxy)pyrimidin-4-yl)-2,8-diazaspiro[4.5]decane-3-carboxylic acid]: the IC50 under setting [2] was in the range of 300 to 3000 nM.

With `CC(C)c1cccc(-c2cc(Cl)ccc2[C@@H](Oc2cc(N3CCC4(CC3)CN[C@H](C(=O)O)C4)nc(N)n2)C(F)(F)F)c1` [Example 34bi, (S)-8-(2-amino-6-((R)-1-(5-chloro-3′-isopropyl-[1,1′-biphenyl]-2-yl)-2,2,2-trifluoroethoxy)pyrimidin-4-yl)-2,8-diazaspiro[4.5]decane-3-carboxylic acid], the IC50 under setting [2] was less than 50 nM.

Turning to `Nc1nc(O[C@H](c2ccc(Cl)cc2-c2cc(Cl)cc(Cl)c2)C(F)(F)F)cc(N2CCC3(CC2)CN[C@H](C(=O)O)C3)n1` [Example 34bj, (S)-8-(2-amino-6-((R)-2,2,2-trifluoro-1-(3′,5,5′-trichloro-[1,1′-biphenyl]-2-yl)ethoxy)pyrimidin-4-yl)-2,8-diazaspiro[4.5]decane-3-carboxylic acid], under setting [2], the IC50 is less than 50 nM.

Regarding `Nc1nc(O[C@H](c2ccc(Cl)cc2-c2ccc(F)c(C(F)(F)F)c2)C(F)(F)F)cc(N2CCC3(CC2)CN[C@H](C(=O)O)C3)n1` [Example 34bk, (S)-8-(2-amino-6-((R)-1-(5-chloro-4′-fluoro-3′-(trifluoromethyl)-[1,1′-biphenyl]-2-yl)-2,2,2-trifluoroethoxy)pyrimidin-4-yl)-2,8-diazaspiro[4.5]decane-3-carboxylic acid], the IC50 under setting [2] fell in the range of 50 to 300 nM.

`CC(C)Oc1cc(F)cc(-c2cc(Cl)ccc2[C@@H](Oc2cc(N3CCC4(CC3)CN[C@H](C(=O)O)C4)nc(N)n2)C(F)(F)F)c1` [Example 34bl, (S)-8-(2-amino-6-((R)-1-(5-chloro-3′-fluoro-5′-isopropoxy-[1,1′-biphenyl]-2-yl)-2,2,2-trifluoroethoxy)pyrimidin-4-yl)-2,8-diazaspiro[4.5]decane-3-carboxylic acid]: the IC50 under setting [2] was in the range of 50 to 300 nM.

Turning to `Cc1cc(-c2cc(Cl)ccc2[C@@H](Oc2cc(N3CCC4(CC3)CN[C@H](C(=O)O)C4)nc(N)n2)C(F)(F)F)cc(C(C)(C)C)c1` [Example 34bm, (S)-8-(2-amino-6-((R)-1-(3′-(tert-butyl)-5-chloro-5′-methyl-[1,1′-biphenyl]-2-yl)-2,2,2-trifluoroethoxy)pyrimidin-4-yl)-2,8-diazaspiro[4.5]decane-3-carboxylic acid], the IC50 under setting [2] lay in the range of 50 to 300 nM.

For `Cc1ccc(-c2cc(Cl)ccc2[C@@H](Oc2cc(N3CCC4(CC3)CN[C@H](C(=O)O)C4)nc(N)n2)C(F)(F)F)cc1F` [Example 34bn, (S)-8-(2-amino-6-((R)-1-(5-chloro-3′-fluoro-4′-methyl-[1,1′-biphenyl]-2-yl)-2,2,2-trifluoroethoxy)pyrimidin-4-yl)-2,8-diazaspiro[4.5]decane-3-carboxylic acid], under setting [2], the IC50 was in the range of 50 to 300 nM.

As for `Nc1nc(O[C@H](c2ccc(Cl)cc2-c2cccnc2)C(F)(F)F)cc(N2CCC3(CC2)CN[C@H](C(=O)O)C3)n1` [Example 34bo, (S)-8-(2-amino-6-((R)-1-(4-chloro-2-(pyridin-3-yl)phenyl)-2,2,2-trifluoroethoxy)pyrimidin-4-yl)-2,8-diazaspiro[4.5]decane-3-carboxylic acid], the 50% inhibitory concentration (IC50) under setting [1] lay within 50 to 300 nM.

Take `CCOc1cc(-c2cc(Cl)ccc2[C@@H](Oc2cc(N3CCC4(CC3)CN[C@H](C(=O)O)C4)nc(N)n2)C(F)(F)F)ccc1F` [Example 34bp, (S)-8-(2-amino-6-((R)-1-(5-chloro-3′-ethoxy-4′-fluoro-[1,1′-biphenyl]-2-yl)-2,2,2-trifluoroethoxy)pyrimidin-4-yl)-2,8-diazaspiro[4.5]decane-3-carboxylic acid]: the IC50 under setting [2] was less than 50 nM.

For `CC(C)(C)c1cccc(-c2cc(Cl)ccc2[C@@H](Oc2cc(N3CCC4(CC3)CN[C@H](C(=O)O)C4)nc(N)n2)C(F)(F)F)c1` [Example 34bq, (S)-8-(2-amino-6-((R)-1-(3′-(tert-butyl)-5-chloro-[1,1′-biphenyl]-2-yl)-2,2,2-trifluoroethoxy)pyrimidin-4-yl)-2,8-diazaspiro[4.5]decane-3-carboxylic acid], the IC50 under setting [1] lay within 50 to 300 nM.

Consider `CC(C)c1cc(-c2cc(Cl)ccc2[C@@H](Oc2cc(N3CCC4(CC3)CN[C@H](C(=O)O)C4)nc(N)n2)C(F)(F)F)ccn1` [Example 34bu, (S)-8-(2-amino-6-((R)-1-(4-chloro-2-(2-isopropylpyridin-4-yl)phenyl)-2,2,2-trifluoroethoxy)pyrimidin-4-yl)-2,8-diazaspiro[4.5]decane-3-carboxylic acid], for which the IC50 under setting [2] is 50 to 300 nM.

For the compound `Nc1nc(O[C@H](c2ccc(Cl)cc2-c2ccc(F)cc2)C(F)(F)F)cc(N2CCC3(CC2)CN[C@H](C(=O)O)C3)n1` [Example 34bv, (S)-8-(2-amino-6-((R)-1-(5-chloro-4′-fluoro-[1,1′-biphenyl]-2-yl)-2,2,2-trifluoroethoxy)pyrimidin-4-yl)-2,8-diazaspiro[4.5]decane-3-carboxylic acid], the IC50 under setting [2] lay within 50 to 300 nM.

`Nc1nc(O[C@H](c2ccc(Cl)cc2-c2ccc(Cl)cc2)C(F)(F)F)cc(N2CCC3(CC2)CN[C@H](C(=O)O)C3)n1` [Example 34bw, (S)-8-(2-amino-6-((R)-1-(4′,5-dichloro-[1,1′-biphenyl]-2-yl)-2,2,2-trifluoroethoxy)pyrimidin-4-yl)-2,8-diazaspiro[4.5]decane-3-carboxylic acid]: the IC50 under setting [1] lay in the range of 50 to 300 nM.
